Assay results as given in US20250243180A1, “TARGETED PROTEIN DEGRADATION” (Monte Rosa Therapeutics AG, priority 2023, published 2025).
Like-named read-outs stand apart in the source and are kept apart here.

Key:
CRBN-DDB1 = CRBN-DDB1 (Homo sapiens (Human), UniProt Q96SW2); assay: Compound binding to CRBN by HTRF assay
Outline: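 Ki calculated via Cheng-Prusoff from geometric-mean EC50 values, after normalizing the HTRF ratio to lenalidomide (active) and DMSO (neutral) controls. Compounds (11 points, 1:3 steps) incubated 30 min at ambient temperature with CRBN-DDB1 2.5 nM, anti-His Tb cryptate and Cy5-thalidomide tracer 100 nM.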

NEK7 = NEK7 (Homo sapiens (Human), UniProt Q8TDX7+Q96SW2); assay: NEK7 NanoBiT degradation assay in Cal51 NEK7 NanoBiT cell line; assay type: cell-based; details: Cal51 NEK7 NanoBiT cells, 24 hours; for Dmax: CAL-51
Outline: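 EC50 comes from a 4-parameter fit of control-normalized luminescence. The luminescence reports HiBiT-NEK7 (endogenous knock-in) complemented by stably expressed LgBiT in Cal51 cells after 24 h compound exposure at 37 °C. Final concentrations ran 1 μM to 0.05 nM, with Endurazine substrate present in the medium throughout.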

[1] = NEK7 degradation, read-out: NanoBiT Dmax
[2] = NEK7 degradation, read-out: NanoBiT DC50

Chain of CRBN-DDB1 (Q96SW2 whole entry): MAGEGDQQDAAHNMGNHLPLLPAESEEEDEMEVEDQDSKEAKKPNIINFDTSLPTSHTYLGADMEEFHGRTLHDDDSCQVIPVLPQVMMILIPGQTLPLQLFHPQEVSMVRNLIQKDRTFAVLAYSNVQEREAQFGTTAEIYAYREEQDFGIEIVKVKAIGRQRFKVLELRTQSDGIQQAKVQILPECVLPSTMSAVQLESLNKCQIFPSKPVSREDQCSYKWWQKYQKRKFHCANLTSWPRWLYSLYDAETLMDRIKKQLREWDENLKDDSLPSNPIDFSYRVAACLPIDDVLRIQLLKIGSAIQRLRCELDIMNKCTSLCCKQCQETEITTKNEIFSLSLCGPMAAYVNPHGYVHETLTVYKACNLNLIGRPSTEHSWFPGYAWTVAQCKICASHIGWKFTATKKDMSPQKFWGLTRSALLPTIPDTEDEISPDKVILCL
Chain of CRBN-DDB1 (Q16531 whole entry partner): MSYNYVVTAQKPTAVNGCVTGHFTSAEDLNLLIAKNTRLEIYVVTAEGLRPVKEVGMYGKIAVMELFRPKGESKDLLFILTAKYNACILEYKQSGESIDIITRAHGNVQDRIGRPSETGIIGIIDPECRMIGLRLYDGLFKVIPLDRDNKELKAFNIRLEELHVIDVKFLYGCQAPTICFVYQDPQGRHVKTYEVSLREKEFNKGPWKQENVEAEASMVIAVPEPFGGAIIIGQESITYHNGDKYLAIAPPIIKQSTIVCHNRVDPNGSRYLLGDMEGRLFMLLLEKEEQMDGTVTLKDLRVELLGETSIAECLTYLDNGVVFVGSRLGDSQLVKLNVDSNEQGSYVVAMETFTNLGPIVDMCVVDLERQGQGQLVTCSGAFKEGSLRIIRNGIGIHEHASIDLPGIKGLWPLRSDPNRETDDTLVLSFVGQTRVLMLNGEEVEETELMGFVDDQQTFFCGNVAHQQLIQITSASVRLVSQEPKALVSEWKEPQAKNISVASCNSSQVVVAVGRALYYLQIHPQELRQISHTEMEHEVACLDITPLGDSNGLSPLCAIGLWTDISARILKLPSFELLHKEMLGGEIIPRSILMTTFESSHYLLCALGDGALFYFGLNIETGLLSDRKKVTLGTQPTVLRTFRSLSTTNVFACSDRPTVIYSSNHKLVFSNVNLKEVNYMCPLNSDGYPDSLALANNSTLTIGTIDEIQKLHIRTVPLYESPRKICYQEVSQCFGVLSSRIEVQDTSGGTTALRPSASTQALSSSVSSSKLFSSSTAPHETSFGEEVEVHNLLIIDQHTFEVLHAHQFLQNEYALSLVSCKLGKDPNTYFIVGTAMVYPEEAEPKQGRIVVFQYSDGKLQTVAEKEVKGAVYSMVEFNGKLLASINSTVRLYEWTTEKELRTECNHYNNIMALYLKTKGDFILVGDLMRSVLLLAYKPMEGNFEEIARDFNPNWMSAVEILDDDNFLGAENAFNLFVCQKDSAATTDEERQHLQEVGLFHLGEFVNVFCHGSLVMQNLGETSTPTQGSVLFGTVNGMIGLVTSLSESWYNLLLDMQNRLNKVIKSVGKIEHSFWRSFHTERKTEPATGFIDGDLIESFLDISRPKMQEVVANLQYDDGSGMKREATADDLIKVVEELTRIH
Chain of NEK7 (Q8TDX7 whole entry): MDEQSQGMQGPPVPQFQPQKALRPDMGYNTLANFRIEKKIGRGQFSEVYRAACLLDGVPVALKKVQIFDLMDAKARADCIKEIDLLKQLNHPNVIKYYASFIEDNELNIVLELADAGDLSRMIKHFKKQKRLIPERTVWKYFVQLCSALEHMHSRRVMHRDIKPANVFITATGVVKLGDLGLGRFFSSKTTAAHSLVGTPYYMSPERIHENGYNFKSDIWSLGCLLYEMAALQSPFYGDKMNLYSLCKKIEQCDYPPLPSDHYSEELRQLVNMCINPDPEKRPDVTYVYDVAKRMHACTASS
Chain of NEK7 (Q96SW2 whole entry): as the sequence (Q96SW2 whole entry) above
Chain of NEK7 (Q16531 2-1140 partner): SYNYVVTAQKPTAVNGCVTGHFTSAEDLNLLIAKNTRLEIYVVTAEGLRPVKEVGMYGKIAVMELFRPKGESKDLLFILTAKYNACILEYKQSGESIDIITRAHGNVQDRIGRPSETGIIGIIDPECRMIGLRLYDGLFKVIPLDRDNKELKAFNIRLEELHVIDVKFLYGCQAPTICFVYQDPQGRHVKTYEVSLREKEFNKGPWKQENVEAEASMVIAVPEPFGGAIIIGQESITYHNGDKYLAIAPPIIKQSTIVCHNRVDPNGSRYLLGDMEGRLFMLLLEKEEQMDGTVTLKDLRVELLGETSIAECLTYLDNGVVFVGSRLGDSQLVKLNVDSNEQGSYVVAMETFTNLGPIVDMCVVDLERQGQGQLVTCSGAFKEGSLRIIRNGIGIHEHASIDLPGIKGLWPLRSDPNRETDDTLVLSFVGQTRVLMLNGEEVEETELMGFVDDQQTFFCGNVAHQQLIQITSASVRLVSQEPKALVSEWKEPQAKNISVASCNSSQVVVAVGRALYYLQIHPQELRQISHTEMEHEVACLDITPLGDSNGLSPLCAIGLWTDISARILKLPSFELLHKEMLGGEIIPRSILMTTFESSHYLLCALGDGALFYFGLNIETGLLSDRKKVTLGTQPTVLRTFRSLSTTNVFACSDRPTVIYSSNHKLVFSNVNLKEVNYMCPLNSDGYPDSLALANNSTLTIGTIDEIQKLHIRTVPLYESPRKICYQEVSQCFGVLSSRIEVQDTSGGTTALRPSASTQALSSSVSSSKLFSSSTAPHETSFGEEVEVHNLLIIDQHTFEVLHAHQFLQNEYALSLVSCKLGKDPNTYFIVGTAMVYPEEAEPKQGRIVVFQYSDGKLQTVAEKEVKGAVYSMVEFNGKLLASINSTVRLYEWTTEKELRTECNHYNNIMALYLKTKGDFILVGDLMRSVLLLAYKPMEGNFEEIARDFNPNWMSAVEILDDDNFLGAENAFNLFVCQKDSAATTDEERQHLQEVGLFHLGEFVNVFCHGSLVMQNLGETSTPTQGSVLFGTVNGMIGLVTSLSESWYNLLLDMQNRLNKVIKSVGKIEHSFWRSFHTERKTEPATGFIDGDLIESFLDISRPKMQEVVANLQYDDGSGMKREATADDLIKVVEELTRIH

| SMILES | EC50 (CRBN-DDB1) | EC50 (CRBN-DDB1; HTRF class, Cereblon binding) | Dmax (NEK7; read-out: NEK7 NanoBiT Dmax) | Dmax (NEK7; [1]) | DC50 (NEK7; read-out: NEK7 NanoBiT DC50) | DC50 (NEK7; [2]) |
| --- | --- | --- | --- | --- | --- | --- |
| COCc1ccnc(C(C)(C)C(=O)NCc2cc(Cl)c(C3CCC(=O)NC3=O)c(Cl)c2)n1 (stereo not drawn) [Compound 217] | 150 nM | 100 to 1000 nM | 56% | 50 to 75% | 327 nM | 100 to 1000 nM |
| CC(C)(C(=O)NCc1cc(Cl)c(C2CCC(=O)NC2=O)c(Cl)c1)c1nc(C2CC2)no1 (stereo not drawn) [Compound 218] | 80 nM | ≤ 100 nM | 71% | 50 to 75% | 49 nM | ≤ 100 nM |
| CC(C)(C(=O)NCc1cc(Cl)c(C2CCC(=O)NC2=O)c(Cl)c1)c1nc(C(F)F)no1 (stereo not drawn) [Compound 219] | 80 nM | ≤ 100 nM | 72% | 50 to 75% | 47 nM | ≤ 100 nM |
| CC(C)(C(=O)NCc1cc(Cl)c(C2CCC(=O)NC2=O)c(Cl)c1)c1nocc1C(F)(F)F (stereo not drawn) [Compound 220] | 150 nM | 100 to 1000 nM | 91% | > 75% | 8 nM | ≤ 100 nM |
| COc1cnc(C(C)(C)C(=O)NCc2cc(Cl)c(C3CCC(=O)NC3=O)c(Cl)c2)nc1C (stereo not drawn) [Compound 221, N-(3,5-dichloro-4-(2,6-dioxopiperidin-3-yl)benzyl)-2-(5-methoxy-4-methylpyrimidin-2-yl)-2-methylpropanamide] | 80 nM | ≤ 100 nM | 83% | > 75% | 19 nM | ≤ 100 nM |
| COCc1cnc(C(C)(C)C(=O)NCc2cc(Cl)c(C3CCC(=O)NC3=O)c(Cl)c2)cn1 (stereo not drawn) [Compound 222, N-(3,5-dichloro-4-(2,6-dioxopiperidin-3-yl)benzyl)-2-(5-(methoxymethyl)pyrazin-2-yl)-2-methylpropanamide] | 160 nM | 100 to 1000 nM | 73% | 50 to 75% | 54 nM | ≤ 100 nM |
| CC(C)(C(=O)NCc1cc(Cl)c(C2CCC(=O)NC2=O)c(Cl)c1)c1ccc(OC(F)(F)F)nn1 (stereo not drawn) [Compound 223, N-(3,5-dichloro-4-(2,6-dioxopiperidin-3-yl)benzyl)-2-methyl-2-(6-(trifluoromethoxy)pyridazin-3-yl)propanamide] | 90 nM | ≤ 100 nM | 91% | > 75% | 8 nM | ≤ 100 nM |
| Cc1nnc(C2(C(=O)NCc3cc(Cl)c(C4CCC(=O)NC4=O)c(Cl)c3)CCC2)o1 (stereo not drawn) [Compound 226, N-(3,5-dichloro-4-(2,6-dioxopiperidin-3-yl)benzyl)-1-(5-methyl-1,3,4-oxadiazol-2-yl)-cyclobutane-1-carboxamide] | 130 nM | 100 to 1000 nM | 54% | 50 to 75% | 556 nM | 100 to 1000 nM |
| COc1conc1C(C)(C)C(=O)NCc1cc(Cl)c(C2CCC(=O)NC2=O)c(Cl)c1 (stereo not drawn) [Compound 227, N-(3,5-dichloro-4-(2,6-dioxopiperidin-3-yl)benzyl)-2-(4-methoxyisoxazol-3-yl)-2-methylpropanamide] | 110 nM | 100 to 1000 nM | 92% | > 75% | 6 nM | ≤ 100 nM |
| COCc1ccc(C(C)(C)C(=O)NCc2cc(Cl)c(C3CCC(=O)NC3=O)c(Cl)c2)nn1 (stereo not drawn) [Compound 228] | 150 nM | 100 to 1000 nM | 85% | > 75% | 18 nM | ≤ 100 nM |
| CC(C)(C(=O)NCc1cc(Cl)c(C2CCC(=O)NC2=O)c(Cl)c1)c1ncc(OC(F)(F)F)cn1 (stereo not drawn) [Compound 229, N-(3,5-dichloro-4-(2,6-dioxopiperidin-3-yl)benzyl)-2-methyl-2-(5-(trifluoromethoxy)-pyrimidin-2-yl)propanamide] | 120 nM | 100 to 1000 nM | 88% | > 75% | 12 nM | ≤ 100 nM |
